According to patent US4529600A, “Pentadeuterioretinoids” (SRI International, priority 1982, dated 1985):

Tests used:
[1] = system: keratinization in hamster tracheal organ culture; assay: tracheal organ culture assay: reversal of keratinization in hamster tracheal organ culture; type: cell-based; conditions: 10 days in culture
Description: (§1) The ODC assay measures a compound's effect on the prevention of the induction of ODC. The tracheal organ culture assay measures a compound's ability to reverse keratinization. For comparison purposes retinoic acid was also tested by these assays.
The tracheal organ culture assay is carried out as follows. Tracheas are taken from hamsters that are in very early stages of vitamin A deficiency and placed in organ culture. At the time of culture, the animals are still gaining weight; the tracheal epithelium is generally low columnar or cuboidal, with only occasional patches of squamous metaplasia. Each trachea is opened from the larynx to the carina along the membranous dorsal wall and cultured in a serum-free medium (CMRL-1066; with crystalline bovine insulin, 0.1 μg/ml; hydrocortisone hemisuccinate, 0.1 μg/ml; glutamine, 2 mM; penicillin, 100 units/ml; and streptomycin,100 μg/ml, added). Cultures are gassed with 50% oxygen, 45% nitrogen, and 5% CO2. The culture dishes are rocked at 35.5-36.0 degrees to allow the tracheas contact with both gas and medium. All tracheas are grown in medium containing no retinoid for the first 3 days. At the end of 3 days, some tracheas are harvested; almost all of these tracheas have significant squamous metaplasia, and approximately 60% have keratinized lesions. The remaining tracheas are then divided into different groups which are treated with either: (1) retinoid dissolved in dimethylsulfoxide (final concentration of DMSO in culture medium is never greater than 0.1%) or (2) an equivalent amount of DMSO alone. Culture medium is changed three times a week, and all of the remaining tracheas are harvested at the end of 10 days in culture. Tracheas are fixed in 10% buffered formalin and embedded in paraffin. Cross sections of five micrometers are made through the mid-portion, stained with hematoxylin and eosin, and then scored with a microscope for the presence of keratin and keratohyaline granules, both of which are found in approximately 90% of control cultures that received no retinoid for the entire 10 day culture period.

ornithine decarboxylase = assay: ODC assay: inhibition of induction of ornithine decarboxylase by 12-O-tetradecanoylphorbol-13-acetate in mouse skin; type: in vivo, mouse (female Charles River CD-1); conditions: topical, 1 hour before TPA (17 nmol)
Description: as §1
The ODC assay is carried out as follows. Female Charles River CD-1 mice from Charles River Breeding Laboratories, Wilmington, Mass., are used (age 7 to 9 weeks). The dorsal hair of the mice is shaved 1 to 2 days before testing, and only mice showing no hair regrowth are used. A single dose of 12-O-tetradecanoylphorbol-13-acetate (TPA) (10.5 μg, 17 nmol) in 0.2 mL of acetone is applied topically to the back of each mouse. The test compound, at one of three dose levels (1.7, 17, and 170 nmol), dissolved in 0.2 mL of acetone is applied 1 hour before the TPA treatment to the test groups; the control group is treated with acetone alone. The mice are killed by cervical dislocation five hours after TPA treatment. Determinations are done in triplicate.
The epidermis is obtained from the sacrificed animals. To obtain sufficient material, the dorsal skins from 2 to b 3 mice in each treatment group are pooled. The depilatory agent Nudit® (Helena Rubinstein, New York) is applied to the shaved area of the skin; after 5 minutes, it is washed off thoroughly with cold tap water. […]
The supernatant fraction remaining after centrifugation of the homogenate at 10,000×g for 30 seconds at 0° C. is used for the enzyme assay. Enzyme activity is determined using the microassay for ODC as described by Verma and Boutwell to measure the release of ^14 CO2 from DL-[1-^14 C]-ornithine (58 mCi/mmol) after incubation with the 10,000×g supernatant. […]
Radioactivity is measured using a toluene-based scintillant (4 g of PPO and 50 mg of POPOP/L of toluene) in a Beckman LS-250 liquid scintillation counter. Enzyme activity is determined in triplicate and expressed as nanomoles of CO2 released in 30 minutes per milligram of protein. […] The protein concentrations of the epidermal extracts are determined by the Lowry procedure, using bovine serum albumin as the standard.

SMILES | Reversal of Keratinization, Active Cultures (%) ([1]; 10^-9 M) | Reversal of Keratinization, Active/Total Cultures ([1]; 10^-9 M) | Reversal of Keratinization, Active Cultures (%) ([1]; 10^-10 M) | Reversal of Keratinization, Active/Total Cultures ([1]; 10^-10 M) | Inhibition of Induction of Ornithine Decarboxylase by 12-O-Tetradecanoylphorbol-13-acetate in Mouse Skin, % Inhibition of Control (ornithine decarboxylase; dose 1.7 nmol) | Inhibition of Induction of Ornithine Decarboxylase by 12-O-Tetradecanoylphorbol-13-acetate in Mouse Skin, % Inhibition of Control (ornithine decarboxylase; dose 17 nmol) [%] | Reversal of Keratinization, Active Cultures (%) ([1]; 10^-8 M) | Reversal of Keratinization, Active/Total Cultures ([1]; 10^-8 M)
[2H]C([2H])([2H])C1=C(/C=C/C(C)=C/C=C/C(C)=C/C(=O)O)C(C)(C)CCC1([2H])[2H] [(E)-retinoic acid-4,4,18,18,18-d5] | 100 | 8/8 | 86 | 6/7 | 90% | 90 |  | 
CC1=C(/C=C/C(C)=C/C=C/C(C)=C/C(=O)O)C(C)(C)CCC1 [(E)-retinoic acid] | 88 | 419/474 | 52 | 134/256 | 87-91% |  | 100 | 236/236
